Results published in ChEMBL document CHEMBL1201861, “Genomics of Drug Sensitity in Cancer screening data, Wellcome Trust Sanger Institute”.

How the values were obtained:
Assay in all cases: cells
[1] = system: NCI-H1623; assay type: functional, cell-based, Homo sapiens; conditions: Homo sapiens, NCI-H1623;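 further: cell viability assay used as the read-out for growth inhibition of NCI-H1623 cells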
Description: SANGER: Inhibition of human NCI-H1623 cell growth in a cell viability assay.

[2] = system: PFSK-1; assay type: functional, cell-based, Homo sapiens; conditions: Homo sapiens, PFSK-1;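 further: cell viability assay measuring how strongly compounds suppress growth of human PFSK-1 cells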
Description: SANGER: Inhibition of human PFSK-1 cell growth in a cell viability assay.

[3] = system: NB5; assay type: functional, cell-based, Homo sapiens; conditions: Homo sapiens, NB5;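 further: growth inhibition of NB5 cells, read out as cell viability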
Description: SANGER: Inhibition of human NB5 cell growth in a cell viability assay.

[4] = system: BV-173; assay type: functional, cell-based; conditions: Homo sapiens
Description: SANGER: Inhibition of human BV-173 cell growth in a cell viability assay.

[5] = system: MDA-MB-361; assay type: functional, cell-based, Homo sapiens; conditions: Homo sapiens, MDA-MB-361
[6] = system: SW-620; assay type: functional, cell-based, Homo sapiens; conditions: Homo sapiens, SW-620;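 further: growth inhibition of human SW-620 cells, measured by a cell viability assay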
Description: SANGER: Inhibition of human SW620 cell growth in a cell viability assay.

[7] = system: COLO-668; assay type: functional, cell-based, Homo sapiens; conditions: Homo sapiens, COLO-668
Description: SANGER: Inhibition of human COLO-668 cell growth in a cell viability assay.

[8] = system: HN; assay type: functional, cell-based, Homo sapiens; conditions: Homo sapiens, HN
Description: SANGER: Inhibition of human HN cell growth in a cell viability assay.

[9] = system: DMS-79; assay type: functional, cell-based; conditions: Homo sapiens;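 further: growth inhibition measured with a cell viability assay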
Description: SANGER: Inhibition of human DMS-79 cell growth in a cell viability assay.

[10] = system: ES6; assay type: functional, cell-based, Homo sapiens; conditions: Homo sapiens, ES6;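 further: growth inhibition of human ES6 cells, read out with a cell viability assay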
Description: SANGER: Inhibition of human ES6 cell growth in a cell viability assay.

[11] = system: J82; assay type: functional, cell-based; conditions: Homo sapiens;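 further: growth inhibition of J82 cells, read out with a cell viability assay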
Description: SANGER: Inhibition of human J82 cell growth in a cell viability assay.

[12] = system: MZ2-MEL; assay type: functional, cell-based, Homo sapiens; conditions: Homo sapiens, MZ2-MEL;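 further: growth inhibition of MZ2-MEL cells read out with a cell viability assay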
Description: SANGER: Inhibition of human MZ2-MEL cell growth in a cell viability assay.

[13] = system: MKN-7; assay type: functional, cell-based, Homo sapiens; conditions: Homo sapiens, MKN-7;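 further: growth inhibition of MKN-7 cells, read out with a cell viability assay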
Description: SANGER: Inhibition of human MKN7 cell growth in a cell viability assay.

[14] = system: HuP-T4; assay type: functional, cell-based, Homo sapiens; conditions: Homo sapiens, HuP-T4;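 further: cell viability assay measuring how much HuP-T4 cell growth is inhibited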
Description: SANGER: Inhibition of human HuP-T4 cell growth in a cell viability assay.

[15] = system: ACHN; assay type: functional, cell-based, Homo sapiens; conditions: Homo sapiens, ACHN;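 further: cell viability read-out used to gauge how strongly growth of human ACHN cells is suppressed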
Description: SANGER: Inhibition of human ACHN cell growth in a cell viability assay.

[16] = system: TE-6; assay type: functional, cell-based, Homo sapiens; conditions: Homo sapiens, TE-6;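 further: growth inhibition of TE-6 cells, read out with a cell viability assay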
Description: SANGER: Inhibition of human TE-6 cell growth in a cell viability assay.

[17] = system: SCC-15; assay type: functional, cell-based, Homo sapiens; conditions: Homo sapiens, SCC-15;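 further: growth inhibition of SCC-15 cells, read out with a cell viability assay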
Description: SANGER: Inhibition of human SCC-15 cell growth in a cell viability assay.

[18] = system: HT-1376; assay type: functional, cell-based, Homo sapiens; conditions: Homo sapiens, HT-1376
Description: SANGER: Inhibition of human HT-1376 cell growth in a cell viability assay.

[19] = system: LS-411N; assay type: functional, cell-based, Homo sapiens; conditions: Homo sapiens, LS-411N
[20] = system: ALL-PO; assay type: functional, cell-based; conditions: Homo sapiens;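 further: growth inhibition of ALL-PO cells, read out by a cell viability assay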
Description: SANGER: Inhibition of human ALL-PO cell growth in a cell viability assay.

[21] = system: SW1417; assay type: functional, cell-based, Homo sapiens; conditions: Homo sapiens, SW1417;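 further: growth inhibition of human SW1417 cells, read out with a cell viability assay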
Description: SANGER: Inhibition of human SW1417 cell growth in a cell viability assay.

[22] = system: EM-2; assay type: functional, cell-based; conditions: Homo sapiens;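 further: growth inhibition of EM-2 cells, read out with a cell viability assay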
Description: SANGER: Inhibition of human EM-2 cell growth in a cell viability assay.

[23] = system: NCI-H1648; assay type: functional, cell-based, Homo sapiens; conditions: Homo sapiens, NCI-H1648;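 further: cell viability assay measuring inhibition of NCI-H1648 cell growth, from the Sanger screening data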
Description: SANGER: Inhibition of human NCI-H1648 cell growth in a cell viability assay.

[24] = system: HCC70; assay type: functional, cell-based, Homo sapiens; conditions: Homo sapiens, HCC70;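 further: cell viability assay measuring how strongly the compound suppresses proliferation of HCC70 cells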
Description: SANGER: Inhibition of human HCC70 cell growth in a cell viability assay.

[25] = system: ChaGo-K-1; assay type: functional, cell-based; conditions: Homo sapiens;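 further: growth inhibition of ChaGo-K-1 cells, read out with a cell viability assay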
Description: SANGER: Inhibition of human ChaGo-K-1 cell growth in a cell viability assay.

[26] = system: HL-60; assay type: functional, cell-based; conditions: Homo sapiens;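 further: growth inhibition of human HL-60 cells, read out with a cell viability assay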
Description: SANGER: Inhibition of human HL-60 cell growth in a cell viability assay.

[27] = system: TYK-nu; assay type: functional, cell-based, Homo sapiens; conditions: Homo sapiens, TYK-nu;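 further: growth inhibition of human TYK-nu cells, read out by a cell viability assay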
Description: SANGER: Inhibition of human TYK-nu cell growth in a cell viability assay.

[28] = system: LOX IMVI; assay type: functional, cell-based; conditions: Homo sapiens
Description: SANGER: Inhibition of human LOXIMVI cell growth in a cell viability assay.

[29] = system: A388; assay type: functional, cell-based, Homo sapiens; conditions: Homo sapiens, A388;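 further: growth inhibition of human A388 cells, read out with a cell viability assay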
Description: SANGER: Inhibition of human A388 cell growth in a cell viability assay.

[30] = system: RCM-1; assay type: functional, cell-based, Homo sapiens; conditions: Homo sapiens, RCM-1;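 further: growth inhibition of the RCM-1 line, determined with a cell viability readout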
Description: SANGER: Inhibition of human RCM-1 cell growth in a cell viability assay.

[31] = system: 8-MG-BA; assay type: functional, cell-based, Homo sapiens; conditions: Homo sapiens, 8-MG-BA;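 further: growth inhibition of 8-MG-BA cells, read out with a cell viability assay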
Description: SANGER: Inhibition of human 8-MG-BA cell growth in a cell viability assay.

[32] = system: EW-13; assay type: functional, cell-based; conditions: Homo sapiens;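 further: growth inhibition of EW-13 cells, read out with a cell viability assay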
Description: SANGER: Inhibition of human EW-13 cell growth in a cell viability assay.

[33] = system: DOHH-2; assay type: functional, cell-based; conditions: Homo sapiens;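 further: growth inhibition of human DOHH-2 cells, read out with a cell viability assay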
Description: SANGER: Inhibition of human DOHH-2 cell growth in a cell viability assay.

[34] = system: NCI-H1693; assay type: functional, cell-based, Homo sapiens; conditions: Homo sapiens, NCI-H1693;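 further: growth inhibition of the human cell line, read out with a cell viability assay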
Description: SANGER: Inhibition of human NCI-H1693 cell growth in a cell viability assay.

[35] = system: CGTH-W-1; assay type: functional, cell-based, Homo sapiens; conditions: Homo sapiens, CGTH-W-1;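 further: growth inhibition of human CGTH-W-1 cells measured by cell viability assay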
Description: SANGER: Inhibition of human CGTH-W-1 cell growth in a cell viability assay.

[36] = system: SW1990; assay type: functional, cell-based, Homo sapiens; conditions: Homo sapiens, SW1990;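 further: cell growth inhibition determined with a viability assay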
Description: SANGER: Inhibition of human SW1990 cell growth in a cell viability assay.

[37] = system: AGS; assay type: functional, cell-based, Homo sapiens; conditions: Homo sapiens, AGS;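 further: growth inhibition of AGS cells, determined with a cell viability assay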
Description: SANGER: Inhibition of human AGS cell growth in a cell viability assay.

[38] = system: MHH-PREB-1; assay type: functional, cell-based; conditions: Homo sapiens;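 further: cell viability assay measuring inhibition of proliferation of human MHH-PREB-1 cells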
Description: SANGER: Inhibition of human MHH-PREB-1 cell growth in a cell viability assay.

[39] = system: KY821; assay type: functional, cell-based; conditions: Homo sapiens;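 further: growth inhibition of human KY821 cells, read out by a cell viability assay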
[40] = system: MZ7-mel; assay type: functional, cell-based, Homo sapiens; conditions: Homo sapiens, MZ7-mel;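 further: growth inhibition of human MZ7-mel cells, measured by a cell viability assay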
[41] = system: ONS-76; assay type: functional, cell-based, Homo sapiens; conditions: Homo sapiens, ONS-76;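 further: growth inhibition of human ONS-76 cells, read out with a cell viability assay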
[42] = system: JVM-2; assay type: functional, cell-based; conditions: Homo sapiens;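 further: growth inhibition of JVM-2 cells determined by a cell viability assay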
Description: SANGER: Inhibition of human JVM-2 cell growth in a cell viability assay.

[43] = system: A-375; assay type: functional, cell-based, Homo sapiens; conditions: Homo sapiens, A-375;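 further: growth inhibition of A375 cells, read out with a cell viability assay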
Description: SANGER: Inhibition of human A375 cell growth in a cell viability assay.

[44] = system: LK-2; assay type: functional, cell-based, Homo sapiens; conditions: Homo sapiens, LK-2;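 further: growth inhibition of LK-2 cells, read out with a viability assay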
Description: SANGER: Inhibition of human LK-2 cell growth in a cell viability assay.

[45] = system: HuP-T3; assay type: functional, cell-based, Homo sapiens; conditions: Homo sapiens, HuP-T3;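 further: HuP-T3 cell growth inhibition, read out with a cell viability assay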
Description: SANGER: Inhibition of human HuP-T3 cell growth in a cell viability assay.

[46] = system: VMRC-RCZ; assay type: functional, cell-based; conditions: Homo sapiens;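 further: growth inhibition measured with a cell viability assay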
[47] = system: TE-8; assay type: functional, cell-based, Homo sapiens; conditions: Homo sapiens, TE-8;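 further: growth inhibition of TE-8 cells, measured with a cell viability readout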
Description: SANGER: Inhibition of human TE-8 cell growth in a cell viability assay.

[48] = system: SW 954; assay type: functional, cell-based, Homo sapiens; conditions: Homo sapiens, SW 954;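 further: growth inhibition of SW954 human cancer cells, read out as cell viability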
Description: SANGER: Inhibition of human SW954 cell growth in a cell viability assay.

[49] = system: NTERA-2-cl-D1; assay type: functional, cell-based, Homo sapiens; conditions: Homo sapiens, NTERA-2-cl-D1;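 further: inhibition of cell growth, measured with a cell viability assay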
Description: SANGER: Inhibition of human NTERA-S-cl-D1 cell growth in a cell viability assay.

[50] = system: DU-4475; assay type: functional, cell-based; conditions: Homo sapiens
Description: SANGER: Inhibition of human DU-4475 cell growth in a cell viability assay.

[51] = system: HGC-27; assay type: functional, cell-based, Homo sapiens; conditions: Homo sapiens, HGC-27;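 further: growth inhibition of human HGC-27 cells, read out in a cell viability assay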
Description: SANGER: Inhibition of human HGC-27 cell growth in a cell viability assay.

[52] = system: LC-2-ad; assay type: functional, cell-based, Homo sapiens; conditions: Homo sapiens, LC-2-ad;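 further: growth inhibition of human LC-2-ad cells, read out with a cell viability assay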
Description: SANGER: Inhibition of human LC-2-ad cell growth in a cell viability assay.

[53] = system: CAMA-1; assay type: functional, cell-based, Homo sapiens; conditions: Homo sapiens, CAMA-1;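 further: growth inhibition of CAMA-1 cells, read out with a cell viability assay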
Description: SANGER: Inhibition of human CAMA-1 cell growth in a cell viability assay.

## CN(C)C/C=C/C(=O)Nc1cc2c(Nc3ccc(F)c(Cl)c3)ncnc2cc1O[C@H]1CCOC1 [AFATINIB]
[1]
  IC50: 80.2 nM
[2]
  IC50: > 500 nM
[3]
  IC50: > 500 nM
[4]
  IC50: 176 nM
[5]
  IC50: > 500 nM
[6]
  IC50: > 500 nM
[7]
  IC50: > 500 nM
[8]
  IC50: 131 nM
[9]
  IC50: > 500 nM
[10]
  IC50: > 500 nM
[11]
  IC50: > 500 nM
[12]
  IC50: > 500 nM
[13]
  IC50: > 500 nM
[14]
  IC50: > 500 nM
[15]
  IC50: 320 nM
[16]
  IC50: 402 nM
[17]
  IC50: > 500 nM
[18]
  IC50: > 500 nM
[19]
  IC50: > 500 nM
[20]
  IC50: > 500 nM
[21]
  IC50: > 500 nM
[22]
  IC50: > 500 nM
[23]
  IC50: 442 nM
[24]
  IC50: > 500 nM
[25]
  IC50: > 500 nM
[26]
  IC50: > 500 nM
[27]
  IC50: > 500 nM
[28]
  IC50: > 500 nM
[29]
  IC50: 369 nM
[30]
  IC50: > 500 nM
[31]
  IC50: > 500 nM
[32]
  IC50: > 500 nM
[33]
  IC50: > 500 nM
[34]
  IC50: > 500 nM
[35]
  IC50: > 500 nM
[36]
  IC50: > 500 nM
[37]
  IC50: > 500 nM
[38]
  IC50: > 500 nM
[39]
  IC50: 20.6 nM
[40]
  IC50: > 500 nM
[41]
  IC50: > 500 nM
[42]
  IC50: > 500 nM
[43]
  IC50: > 500 nM
[44]
  IC50: > 500 nM
[45]
  IC50: > 500 nM
[46]
  IC50: > 500 nM
[47]
  IC50: > 500 nM
[48]
  IC50: > 500 nM
[49]
  IC50: > 500 nM
[50]
  IC50: > 500 nM
[51]
  IC50: > 500 nM
[52]
  IC50: > 500 nM
[53]
  IC50: > 500 nM
